The results in this text go back to patent publication US12391685B2, “Inhibitors of RNA-guided nuclease target binding and uses thereof” (THE BROAD INSTITUTE, INC., priority 2018, dated 2025).

≈ marks a conversion by molar mass, not a printed value. Entries after “also recorded” stand apart in the source; their conditions may differ. Read-outs that look alike come from different tables or passages of the source.

As usually defined, the solubility is the dissolved amount per volume that the medium holds.

One data set has as its target T1, SpCas9:DNA interactions (Streptococcus pyogenes serotype M1, UniProt Q99ZW2).
T1 construct: made in house; host or cells: E. coli Rosetta (DE3)
The data set is described as follows: Differential scanning fluorimetry, disruption of SpCas9-DNA interaction. The note with it: SpCas9 1 μM, 8PAM DNA 2 μM, BRD0539 5-20 μM. It is filed as binding, S. pyogenes. Here is the method:
Disruption of SpCas9-DNA interaction by BRD0539. Protein melting experiments were performed in a 384-well format using a 6 μL reaction volume in a LightCycler 480 instrument. For DNA binding assay, 1 μM SpCas9 (1 μM) was incubated with indicated amount of 8PAM DNA (0.25, 0.5, 1, and 2 μM) for 15 min in a 20 mM Tris-HCl buffer (150 mM KCl, 5 mM MgCl2, 1 mM DTT, pH 7.5). For inhibition assay, SpCas9 (1 μM) or SpCas9:gRNA (1 μM) was incubated with indicated amount of either BRD0539 or equivalent amount of DMSO for 15 min in a 20 mM Tris-HCl buffer (150 mM KCl, 5 mM MgCl2, 1 mM DTT, pH 7.5). Next, a 8PAM DNA (2 μM) was added to each of the reaction and incubated for additional 15 min followed by addition of 1 μL of 100×SYPRO® Orange (Invitrogen) before running the melting cycle with a temperature gradient of 4.8° C./min. Experiments were performed in duplicate and data were processed using Roche LightCycler® 480 Protein Melting software.
On the technique in general: Differential scanning fluorimetry follows unfolding on heating by fluorescence.

Data set [1] has as its target T2, SpCas9 (Streptococcus pyogenes serotype M1, UniProt Q99ZW2). The data set is described as follows: HiBiT assay in U2OS.eGFP.PEST cells. It is filed as cell-based, S. pyogenes. On the set-up: host or cells: U2OS.eGFP.PEST. The note with it: 24 h. Here is the method:
HiBiT assay. For SpCas9 expression in cells, the previously described JDS246 plasmid was used (Kleinstiver et al., 2015b). ssODN donor DNA template with the HiBiT tag was purchased as single-stranded Ultramer DNA Oligonucleotides (IDT) and resuspended to 40 μM in nuclease-free water. For the assay, 2×10^5 cells were co-transfected with 300 ng Cas9 plasmid, 75 ng sgRNA plasmid and 100 ng ssODN using the DN-100 program of Lonza 4D nucleofector according to the manufacturer's protocols. For negative controls, either the sgRNA plasmid or the ssODN was omitted. 20,000 transfected cells were plated in each well of a 96-well plate (Corning 3904). Immediately after transfection, cells were treated with varying concentrations of BRD0539 or BRD3433 and incubated at 37° C. with 5% CO2. 24 h after transfection, the cells were washed once with PBS and kept in 80 μL PBS. An equal volume of the Nano-Glo HiBiT Lytic Reagent (Promega N3030), consisting of Nano-Glo HiBiT Lytic Buffer, Nano-Glo HiBiT Lytic Substrate, and LgBiT Protein, was added according to the manufacturer's protocol, and cells were incubated for 10 min at ambient temperature with shaking at 600 rpm (Schwinn et al., 2018a). The cells were then incubated for an additional 10 min without shaking at room temperature to allow equilibration of the HiBiT and LgBiT in the lysate. The lysate was then transferred to a white plate (Corning 3990) and luminescence was measured using an Envision plate reader (Perkin-Elmer) with 1 s of integration time.
Background: HiBiT is a short tag that completes a luciferase, so light tracks the accessible tagged protein.

The target of another data set is T3, SpCas9:gRNA complex (Streptococcus pyogenes serotype M1, UniProt Q99ZW2).
T3 construct: made in house; host or cells: E. coli Rosetta (DE3)
T3 sequence (Q99ZW2 whole entry, one chain of several): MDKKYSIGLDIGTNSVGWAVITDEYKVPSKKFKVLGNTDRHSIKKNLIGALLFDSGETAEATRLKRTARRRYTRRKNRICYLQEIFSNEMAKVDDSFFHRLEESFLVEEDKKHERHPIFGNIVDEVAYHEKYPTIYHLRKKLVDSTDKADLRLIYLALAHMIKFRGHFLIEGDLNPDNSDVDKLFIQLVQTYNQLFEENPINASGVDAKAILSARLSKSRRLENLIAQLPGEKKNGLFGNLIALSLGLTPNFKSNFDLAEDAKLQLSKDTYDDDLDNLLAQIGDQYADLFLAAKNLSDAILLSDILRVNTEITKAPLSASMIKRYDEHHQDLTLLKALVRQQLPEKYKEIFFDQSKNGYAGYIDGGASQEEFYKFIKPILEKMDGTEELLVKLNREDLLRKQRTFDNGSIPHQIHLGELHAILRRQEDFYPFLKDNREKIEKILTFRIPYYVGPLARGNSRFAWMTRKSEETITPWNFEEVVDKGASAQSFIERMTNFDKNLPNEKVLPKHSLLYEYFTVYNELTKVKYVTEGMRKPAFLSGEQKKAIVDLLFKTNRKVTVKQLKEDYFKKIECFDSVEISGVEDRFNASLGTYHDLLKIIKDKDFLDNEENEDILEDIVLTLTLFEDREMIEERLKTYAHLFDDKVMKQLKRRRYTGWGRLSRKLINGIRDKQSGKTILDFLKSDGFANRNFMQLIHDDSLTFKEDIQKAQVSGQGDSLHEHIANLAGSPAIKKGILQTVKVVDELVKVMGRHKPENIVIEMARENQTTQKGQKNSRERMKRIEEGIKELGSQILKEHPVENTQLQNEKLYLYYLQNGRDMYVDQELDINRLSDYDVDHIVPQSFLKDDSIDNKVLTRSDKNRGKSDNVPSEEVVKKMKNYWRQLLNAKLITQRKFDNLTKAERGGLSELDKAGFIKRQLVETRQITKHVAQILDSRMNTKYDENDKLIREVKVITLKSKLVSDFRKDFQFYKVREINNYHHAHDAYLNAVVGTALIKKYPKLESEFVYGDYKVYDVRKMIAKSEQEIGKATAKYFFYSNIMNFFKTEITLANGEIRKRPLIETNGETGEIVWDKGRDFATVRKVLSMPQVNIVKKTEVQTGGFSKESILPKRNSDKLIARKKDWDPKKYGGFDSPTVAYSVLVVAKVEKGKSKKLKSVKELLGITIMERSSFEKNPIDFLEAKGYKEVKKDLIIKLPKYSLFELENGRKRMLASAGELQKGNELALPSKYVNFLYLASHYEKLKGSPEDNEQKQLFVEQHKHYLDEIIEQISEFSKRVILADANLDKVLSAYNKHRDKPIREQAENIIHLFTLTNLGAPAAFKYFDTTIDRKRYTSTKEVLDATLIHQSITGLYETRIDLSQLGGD
The experiment in a line: 19F NMR binding assay. The note with it: for receptor occupancy at 50 µM: read-out: Fractional Occupancy. On the set-up: species or system S. pyogenes. Here is the method:
Table 8 NMR parameters used for analysis of BRD7087 binding to SpCas9:gRNA complex. The binding study of BRD7087 to SpCas9:gRNA complex was analyzed based on the method described by Shortridge et. al. The linewidth (LW) increases with increasing SpCas9:gRNA concentration, as expected. Peak intensity values were used to measure the fractional occupancy using the equation Fractional Occupancy=(1−Ibound/I0), where I0 is the intensity of the peak with no protein in the sample. The peak area remains relatively constant, as expected for a fixed concentration of ligand.
NMR binding assay. All samples were prepared with 50 μM BRD7087 in 20 mM Tris buffer (pH 7.4) with varying concentrations of SpCas9:gRNA in a 3 mm NMR tube. Experiments were performed on a 600 MHZ (^19F: 564.71 MHZ) Bruker Avance III NMR spectrometer equipped with a 5 mm QCI-F CryoProbe and a SampleJet for automated sample handling. To acquire spectra, a standard one-pulse ^19F experiment with WALTZ-16 for proton decoupling during acquisition, a 5 second recycle delay, and 256 scans were used. All spectra were recorded at 280 K. NMR data were apodized with a 1 Hz exponential function prior to Fourier transformation. All spectra were baseline corrected, and peak widths and intensities were extracted using the automated line-fitting feature provided with the MNova software package.

Data set [2] has as its target T2, SpCas9. The experiment in a line: mKate2-disruption assay in HEK293T cells. Type of data set: cell-based, S. pyogenes. The note with it: 1.5-5 μM, 24 h. Here is the method:
mKate2-disruption assay. Approximately 8,000 cells/well were seeded in a 96-well plate 24 h before transient transfection with 100 ng of either CgRNA (Addgene Plasmid #64955) or T1gRNA (Addgene Plasmid #62717) plasmids using Lipofectamine 2000 (Life Technologies). Transfected cells were allowed to grow in the indicated amount of small molecule or DMSO for 24 h. Cells were then fixed using 4% paraformaldehyde and imaged with the HCS NuclearMask™ Blue Stain (Life Technologies) as the nuclear counter-staining agent. Imaging was performed with an ImageXpress Micro automated microscope (Molecular Devices) at 20× magnification under two excitation channels (blue and red) with 9 acquisition sites per well. Images were analyzed using the MetaXpress software to determine the % mKate2 positive cells and data was plotted using GraphPad Prism 6. The Z′-value was calculated following the formula: Z′=1−(3(σ1+σ2))/(|μ1−μ2|) where σ1 and σ2 are the standard deviations of CgRNA transfected wells and T1gRNA transfected wells respectively. μ1 and μ2 are the mean % RFP^+ cell population for CgRNA transfected wells and T1gRNA transfected wells, respectively.

A further data set in a line: physchem. The note with it: PBS, aqueous buffer.
Data set [3] relates to U2OS.eGFP.PEST cells and HEK293T cells. The data set is described as follows: Cell viability (ATP content). The note with it: 5-20 μM, 24 h.
Setting [4] is: 50 μM BRD7087, 0.75 μM SpCas9:gRNA.
The mark [5] stands for this setting: 50 μM BRD7087, 1.0 μM SpCas9:gRNA.
Where [6] appears, read: 50 μM BRD7087, 1.25 μM SpCas9:gRNA.
Setting [7] is: 50 μM BRD7087, 1.5 μM SpCas9:gRNA.
Where [8] appears, read: 50 μM BRD7087, 1.75 μM SpCas9:gRNA.

T2 sequence (Q99ZW2 whole entry): as the sequence (Q99ZW2 whole entry, one chain of several) above
T1 sequence (Q99ZW2 whole entry): as the sequence (Q99ZW2 whole entry, one chain of several) above

As for `Cc1ccc(S(=O)(=O)N2CC[C@@H]3[C@H](CO)Nc4ccc(-c5ccccc5F)cc4[C@@H]32)cc1` [BRD0539, ((3aR,4R,9bR)-8-(2-fluorophenyl)-1-tosyl-2,3,3a,4,5,9b-hexahydro-1H-pyrrolo[3,2-c]quinolin-4-yl) methanol], the “effect on formation of the DNA-bound state of SpCas9 (in words)” value on SpCas9:DNA interactions is “dose-dependently blocked the formation of the DNA bound state; also recorded: dose-dependently blocked the formation of the DNA-bound state”. Besides, the “inhibition of SpCas9 in the HiBiT assay (in words)” value at SpCas9 [1] was “dose-dependent inhibition”. Besides, the “higher activity of BRD0539 than BRD3497 and BRD9419 in the HiBiT assay” value at SpCas9 [1] (tested from 4.8-15 μM) is “greater than two-fold”.
As to `OC[C@H]1Nc2ccc(-c3cccc(F)c3)cc2[C@H]2[C@@H]1CCN2Cc1ccncc1` [BRD7087, ((3aR,4S,9bR)-8-(3-Fluorophenyl)-1-(pyridin-4-ylmethyl)-2,3,3a,4,5,9b-hexahydro-1H-pyrrolo[3,2-c]quinolin-4-yl) methanol], the “LW (linewidth of 19F signal)” value on SpCas9:gRNA complex (setting [4]) is listed as 4.3 Hz; on SpCas9:gRNA complex (setting [5]) it was 4.6 Hz; on SpCas9:gRNA complex (setting [6]) it was 5.3 Hz; on SpCas9:gRNA complex (setting [7]), 5.9 Hz; at SpCas9:gRNA complex (setting [8]) it was 6.3 Hz. Besides, the receptor occupancy at 50 µM came out at 13.1% on SpCas9:gRNA complex (setting [4]); 18.2% at SpCas9:gRNA complex (setting [5]); 30.4% at SpCas9:gRNA complex (setting [6]); 34.4% on SpCas9:gRNA complex (setting [7]); 40.1% on SpCas9:gRNA complex (setting [8]). In addition, the “binding to SpCas9:gRNA by 19F line broadening (in words)” value at SpCas9:gRNA complex (significant broadening at protein concentrations as low as 0.75 μM) is given as “tight binding”. The “inhibition of SpCas9 in the mKate2 disruption assay (in words)” value at SpCas9 [2] is recorded as “dose-dependent inhibition”. This compound came in with a solubility at 24 h in “physchem” of 75 µM (≈ 29.2 µg/mL). The “cytotoxicity (in words)” value in data set [3] is recorded as “non-cytotoxic”.
